Laboratory results as given in ChEMBL document CHEMBL5096240, “Discovery of Potent and Selective Inhibitors of Wild-Type and Gatekeeper Mutant Fibroblast Growth Factor Receptor (FGFR) 2/3” (J Med Chem, 2022).
Converted amounts (≈) assume the structure as drawn. The source made the active and inactive calls. No cut-off for these calls is given here.

Legend:
[1] = biological target: Platelet-derived growth factor receptor beta (Homo sapiens, UniProt P09619); test: Inhibition of wild type partial length human PDGFRbeta (V582 to Y1009 residues) expressed in bacterial expression system using Ulight-p70S6K peptide substrate incubated for 90 mins in presence of ATP by HTRF assay
[2] = biological target: Mast/stem cell growth factor receptor Kit (Homo sapiens, UniProt P10721); test: Inhibition of wild type partial length human KIT (I571 to D952 residues) expressed in bacterial expression system using Ulight-p70S6K peptide substrate incubated for 90 mins in presence of ATP by HTRF assay
Cytochrome P450 3A4 = Cytochrome P450 3A4 (Homo sapiens, UniProt P08684); test: Inhibition of human liver microsomes CYP3A4 using midazolam or testosterone as substrate in presence of NADPH regenerating system by LC-MS/MS analysis; set-up: species or system Microsome
[3] = biological target: High affinity nerve growth factor receptor (Homo sapiens, UniProt P04629); test: Inhibition of wild type partial length human TRKA (G475 to G790 residues) expressed in mammalian expression system using Ulight-p70S6K peptide substrate incubated for 90 mins in presence of ATP by HTRF assay
CYP3A4 = CYP3A4 (Homo sapiens, UniProt P08684); test: Inhibition of human liver microsomes CYP3A4 at 5 uM using midazolam or testosterone as substrate in presence of NADPH regenerating system by LC-MS/MS analysis relative to control; format: ADME, Microsome; settings: probe midazolam or testosterone
[4] = Apparent permeability in human Caco-2 cells at 50 uM incubated for 120 mins by LC-MS/MS analysis; format: ADME, cell-based
[5] = biological target: Fibroblast growth factor receptor 2 (Homo sapiens, UniProt P21802); test: Inhibition of N-terminal GST tagged recombinant human FGFR2 (400 to 821 residues) expressed in an Sf9 infected baculovirus expression system using biotin-EQEDEPEGDYFEWLE-amide as substrate preincubated for 5 to 10 mins followed by substrate addition and measured after 1 hr by HTRF assay
[6] = Clearance in Sprague-Dawley rat assessed as hepatic blood flow at 0.73 mg/kg, iv measured upto 24 hrs by LC-MS/MS analysis; format: ADME, organism-based; settings: in vivo
[7] = AUC in Sprague-Dawley rat at 3.1 mg/kg, po measured upto 24 hrs by LC-MS/MS analysis; format: ADME, organism-based; set-up: time < 24 hrs, dose 3.1 mg/kg, route po; settings: in vivo
[8] = Cmax in Sprague-Dawley rat at 3.1 mg/kg, po measured upto 24 hrs by LC-MS/MS analysis; format: ADME, organism-based; set-up: time < 24 hrs, dose 3.1 mg/kg, route po; settings: in vivo
[9] = Volume of distribution at steady state in Sprague-Dawley rat at 0.73 mg/kg, iv measured upto 24 hrs by LC-MS/MS analysis; format: ADME, organism-based; settings: in vivo, read-out: Vdss
[10] = Solubility of compound in SGF by HPLC assay; format: physicochemical
[11] = Oral bioavailability in Sprague-Dawley rat at 3.1 mg/kg measured upto 24 hrs by LC-MS/MS analysis; format: ADME, organism-based; settings: in vivo
[12] = Half life in Sprague-Dawley rat at 0.73 mg/kg, iv measured upto 24 hrs by LC-MS/MS analysis; format: ADME, organism-based; settings: in vivo
[13] = Solubility of compound in FaSSIF by HPLC assay; format: physicochemical
[14] = biological target: Fibroblast growth factor receptor 4 (Homo sapiens, UniProt P22455); test: Inhibition of recombinant human FGFR4 (460 to 802 residues) using biotin-EQEDEPEGDYFEWLE-amide as substrate preincubated for 5 to 10 mins followed by substrate addition and measured after 1 hr by HTRF assay
Mus musculus = test: In vivo inhibition of ERK phosphorylation in human UMUC14 cells xenografted with NSG mouse at 100 mg/kg, po measured after 2 hrs by MSD assay; format: functional, organism-based

Chain of Cytochrome P450 3A4 (P08684 whole entry, the tested form may be a part): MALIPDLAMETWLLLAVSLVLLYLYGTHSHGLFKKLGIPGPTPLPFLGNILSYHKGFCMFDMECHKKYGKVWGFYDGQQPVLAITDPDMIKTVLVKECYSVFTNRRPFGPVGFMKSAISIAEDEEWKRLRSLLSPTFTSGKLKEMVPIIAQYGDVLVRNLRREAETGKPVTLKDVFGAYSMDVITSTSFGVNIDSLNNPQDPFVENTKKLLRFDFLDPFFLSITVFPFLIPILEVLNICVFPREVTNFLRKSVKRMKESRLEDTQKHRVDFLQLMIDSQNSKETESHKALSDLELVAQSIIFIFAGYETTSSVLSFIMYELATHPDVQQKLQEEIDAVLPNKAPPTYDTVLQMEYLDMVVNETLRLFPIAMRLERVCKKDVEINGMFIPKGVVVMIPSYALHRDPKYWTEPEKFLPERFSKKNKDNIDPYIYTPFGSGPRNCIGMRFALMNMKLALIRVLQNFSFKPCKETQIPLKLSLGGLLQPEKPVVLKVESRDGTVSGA
Chain of Platelet-derived growth factor receptor beta (P09619 whole entry, the tested form may be a part): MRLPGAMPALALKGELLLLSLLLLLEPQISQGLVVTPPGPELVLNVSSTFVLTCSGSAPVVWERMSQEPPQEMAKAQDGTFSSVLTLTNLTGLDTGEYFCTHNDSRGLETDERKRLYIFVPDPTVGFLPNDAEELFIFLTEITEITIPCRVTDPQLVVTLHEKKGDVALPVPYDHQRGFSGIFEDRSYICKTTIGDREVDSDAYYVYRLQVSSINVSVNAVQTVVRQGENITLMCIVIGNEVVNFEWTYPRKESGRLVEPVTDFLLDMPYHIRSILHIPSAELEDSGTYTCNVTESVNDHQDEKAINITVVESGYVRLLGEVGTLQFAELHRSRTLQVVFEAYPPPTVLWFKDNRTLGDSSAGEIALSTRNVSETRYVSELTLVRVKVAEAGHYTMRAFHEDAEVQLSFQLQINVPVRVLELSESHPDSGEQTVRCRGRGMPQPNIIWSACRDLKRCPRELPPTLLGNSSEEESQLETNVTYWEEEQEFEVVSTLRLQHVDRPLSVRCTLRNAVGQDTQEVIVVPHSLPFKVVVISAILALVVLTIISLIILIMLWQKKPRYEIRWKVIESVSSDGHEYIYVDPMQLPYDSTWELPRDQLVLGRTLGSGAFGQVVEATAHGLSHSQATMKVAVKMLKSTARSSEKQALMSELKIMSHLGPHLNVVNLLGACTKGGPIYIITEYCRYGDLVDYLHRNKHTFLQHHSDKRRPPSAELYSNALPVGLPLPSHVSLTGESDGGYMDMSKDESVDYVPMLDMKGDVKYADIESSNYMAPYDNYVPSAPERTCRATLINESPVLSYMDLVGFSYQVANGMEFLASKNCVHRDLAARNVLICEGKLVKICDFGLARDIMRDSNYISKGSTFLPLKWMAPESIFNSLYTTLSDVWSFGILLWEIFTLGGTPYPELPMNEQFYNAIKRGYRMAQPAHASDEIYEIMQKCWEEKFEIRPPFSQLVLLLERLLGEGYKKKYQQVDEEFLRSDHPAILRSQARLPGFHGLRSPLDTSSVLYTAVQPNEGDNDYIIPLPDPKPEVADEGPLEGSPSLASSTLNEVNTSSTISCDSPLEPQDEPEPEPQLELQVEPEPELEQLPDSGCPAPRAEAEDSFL
Chain of Mast/stem cell growth factor receptor Kit (P10721 whole entry, the tested form may be a part): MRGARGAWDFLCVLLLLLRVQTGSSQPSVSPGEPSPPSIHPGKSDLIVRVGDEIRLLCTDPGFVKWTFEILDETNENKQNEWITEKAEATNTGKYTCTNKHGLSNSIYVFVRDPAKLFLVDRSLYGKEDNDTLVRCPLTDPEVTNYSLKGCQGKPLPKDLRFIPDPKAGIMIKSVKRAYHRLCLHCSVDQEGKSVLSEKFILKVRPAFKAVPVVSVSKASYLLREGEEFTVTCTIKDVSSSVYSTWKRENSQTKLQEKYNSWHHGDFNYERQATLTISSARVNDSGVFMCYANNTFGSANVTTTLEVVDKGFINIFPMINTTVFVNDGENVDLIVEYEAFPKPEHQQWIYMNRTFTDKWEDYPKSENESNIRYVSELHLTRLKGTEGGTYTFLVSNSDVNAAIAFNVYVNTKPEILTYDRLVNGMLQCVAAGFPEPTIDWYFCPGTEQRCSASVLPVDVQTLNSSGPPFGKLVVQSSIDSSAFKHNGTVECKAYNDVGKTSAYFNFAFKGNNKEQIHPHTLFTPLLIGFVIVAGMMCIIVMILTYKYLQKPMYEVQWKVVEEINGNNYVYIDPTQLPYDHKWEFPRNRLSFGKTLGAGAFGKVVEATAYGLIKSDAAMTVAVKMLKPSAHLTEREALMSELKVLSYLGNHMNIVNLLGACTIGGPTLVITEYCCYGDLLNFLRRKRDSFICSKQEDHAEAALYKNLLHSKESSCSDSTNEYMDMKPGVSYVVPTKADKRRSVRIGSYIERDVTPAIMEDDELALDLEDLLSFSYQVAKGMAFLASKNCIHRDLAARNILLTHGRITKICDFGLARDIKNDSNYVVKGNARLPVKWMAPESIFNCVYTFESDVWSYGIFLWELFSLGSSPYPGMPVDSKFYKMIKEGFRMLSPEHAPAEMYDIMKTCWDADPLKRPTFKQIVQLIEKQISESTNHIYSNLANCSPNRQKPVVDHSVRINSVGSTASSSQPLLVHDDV
Chain of High affinity nerve growth factor receptor (P04629 whole entry, the tested form may be a part): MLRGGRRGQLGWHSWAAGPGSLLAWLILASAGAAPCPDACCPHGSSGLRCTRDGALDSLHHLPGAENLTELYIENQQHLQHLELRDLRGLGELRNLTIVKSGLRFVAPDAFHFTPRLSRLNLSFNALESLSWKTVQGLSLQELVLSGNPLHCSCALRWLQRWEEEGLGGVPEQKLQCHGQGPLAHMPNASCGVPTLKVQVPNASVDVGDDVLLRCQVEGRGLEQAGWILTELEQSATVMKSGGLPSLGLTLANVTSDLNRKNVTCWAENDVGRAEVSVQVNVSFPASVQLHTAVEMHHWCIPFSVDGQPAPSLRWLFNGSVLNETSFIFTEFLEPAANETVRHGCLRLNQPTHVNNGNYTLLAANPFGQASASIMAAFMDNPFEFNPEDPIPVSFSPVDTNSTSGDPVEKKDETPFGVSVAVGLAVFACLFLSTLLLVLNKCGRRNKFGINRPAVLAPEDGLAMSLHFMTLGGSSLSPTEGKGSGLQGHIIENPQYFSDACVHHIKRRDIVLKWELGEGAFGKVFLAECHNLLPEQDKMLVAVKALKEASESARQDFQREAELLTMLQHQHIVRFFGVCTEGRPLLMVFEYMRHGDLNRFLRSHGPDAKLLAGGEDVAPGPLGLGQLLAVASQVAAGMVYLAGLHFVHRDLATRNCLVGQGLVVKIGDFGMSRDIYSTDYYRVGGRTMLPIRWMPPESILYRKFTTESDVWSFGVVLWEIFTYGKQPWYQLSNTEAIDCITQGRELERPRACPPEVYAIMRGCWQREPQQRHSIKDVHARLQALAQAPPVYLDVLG
Chain of CYP3A4 (P08684 whole entry): as the sequence (P08684 whole entry, the tested form may be a part) above
Chain of Fibroblast growth factor receptor 4 (P22455 whole entry, the tested form may be a part): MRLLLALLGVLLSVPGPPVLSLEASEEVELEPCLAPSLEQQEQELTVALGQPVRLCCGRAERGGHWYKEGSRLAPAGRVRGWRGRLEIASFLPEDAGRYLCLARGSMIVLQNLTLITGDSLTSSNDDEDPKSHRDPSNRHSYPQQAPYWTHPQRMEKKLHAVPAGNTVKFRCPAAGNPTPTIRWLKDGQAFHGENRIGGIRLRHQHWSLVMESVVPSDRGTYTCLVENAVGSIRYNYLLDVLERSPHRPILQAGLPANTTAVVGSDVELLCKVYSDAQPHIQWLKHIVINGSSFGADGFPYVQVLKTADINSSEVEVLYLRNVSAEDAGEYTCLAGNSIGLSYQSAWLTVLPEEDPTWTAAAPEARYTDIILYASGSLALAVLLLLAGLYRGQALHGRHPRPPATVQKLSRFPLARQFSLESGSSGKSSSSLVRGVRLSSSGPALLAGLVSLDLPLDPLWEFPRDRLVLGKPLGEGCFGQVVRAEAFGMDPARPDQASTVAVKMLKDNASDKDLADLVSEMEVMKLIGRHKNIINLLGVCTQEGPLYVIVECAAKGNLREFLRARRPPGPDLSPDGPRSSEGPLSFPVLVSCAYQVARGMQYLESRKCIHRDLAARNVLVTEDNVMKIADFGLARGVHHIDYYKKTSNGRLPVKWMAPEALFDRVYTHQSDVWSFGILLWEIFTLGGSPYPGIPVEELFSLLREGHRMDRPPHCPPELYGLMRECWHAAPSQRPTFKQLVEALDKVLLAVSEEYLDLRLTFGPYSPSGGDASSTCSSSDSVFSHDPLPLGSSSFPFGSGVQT
Chain of Fibroblast growth factor receptor 2 (P21802 whole entry, the tested form may be a part): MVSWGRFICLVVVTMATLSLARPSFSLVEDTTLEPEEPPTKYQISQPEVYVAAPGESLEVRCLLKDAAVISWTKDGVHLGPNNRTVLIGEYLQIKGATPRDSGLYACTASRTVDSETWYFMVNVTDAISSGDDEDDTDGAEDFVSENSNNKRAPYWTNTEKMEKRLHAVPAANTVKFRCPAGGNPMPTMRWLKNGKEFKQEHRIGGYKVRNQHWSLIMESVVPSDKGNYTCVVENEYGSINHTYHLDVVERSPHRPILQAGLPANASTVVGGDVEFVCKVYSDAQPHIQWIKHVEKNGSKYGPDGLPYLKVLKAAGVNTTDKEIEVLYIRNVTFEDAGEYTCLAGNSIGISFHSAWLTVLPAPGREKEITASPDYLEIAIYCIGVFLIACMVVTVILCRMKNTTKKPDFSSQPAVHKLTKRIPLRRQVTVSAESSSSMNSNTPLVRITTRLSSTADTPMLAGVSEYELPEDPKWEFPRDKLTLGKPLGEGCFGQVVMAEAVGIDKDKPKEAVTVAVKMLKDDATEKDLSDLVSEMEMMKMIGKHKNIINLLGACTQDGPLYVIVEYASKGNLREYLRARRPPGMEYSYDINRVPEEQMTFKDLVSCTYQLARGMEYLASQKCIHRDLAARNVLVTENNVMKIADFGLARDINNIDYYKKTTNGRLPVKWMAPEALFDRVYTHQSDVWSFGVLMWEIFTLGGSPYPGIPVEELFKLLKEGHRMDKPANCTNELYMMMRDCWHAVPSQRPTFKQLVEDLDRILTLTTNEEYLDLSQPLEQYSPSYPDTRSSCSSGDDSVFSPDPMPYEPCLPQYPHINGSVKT

SMILES	IC50 [1]	IC50 [2]	IC50 (Cytochrome P450 3A4)	IC50 [3]	Papp at 2 h, 50 µM [4]	other results
CNC(=O)c1cc(C)cc(-c2cnc3cc(-c4cnn(C(C)C)c4)c(O[C@H]4CCOC4)nn23)c1	0.126 µM	0.022 µM	–	0.363 µM	–	–
CNC(=O)c1cccc(-c2cnc3cc(-c4cnn(C)c4)c(OC)nn23)c1	0.038 µM	–	–	0.058 µM	–	–
CNC(=O)c1cccc(-c2cnc3cc(-c4cnn(C)c4)c(O[C@H]4CCOC4)nn23)c1	0.066 µM	0.082 µM	–	0.118 µM	–	–
[2H]C([2H])([2H])NC(=O)c1cncc(-c2cnn3cc(-c4ccn(C(C)C)n4)c(N[C@H]4CCOC4)nc23)c1	–	–	–	–	–	IC50 [5]: 0.0002 µM
CNC(=O)c1ccc(F)c(-c2cnc3cc(-c4cnn(C)c4)c(OC)nn23)c1	0.348 µM	0.18 µM	–	0.011 µM	–	–
CNC(=O)c1cc(F)c(F)c(-c2cnc3cc(-c4cnn(C)c4)c(O[C@H]4CCOC4)nn23)c1	1.74 µM	1.45 µM	3.9 µM	0.285 µM	5.7 ×10⁻⁶ cm/s	QH [6]: 3.3%; AUC at 24 h [7]: 33.6 µM·h; Cmax [8]: 6.17 µM; Vd [9]: 0.35 L/kg; solubility [10]: > 400 µg/mL; bioavailability [11]: 54%; half-life [12]: 5.3 h; solubility [13]: 118 µg/mL (≈ 260 µM)
CNC(=O)c1cc(C)c(F)c(-c2cnc3cc(-c4cnn(C)c4)c(O[C@H]4CCOC4)nn23)c1	1.39 µM	1.66 µM	–	0.293 µM	–	–
CNC(=O)c1cc(-c2cnc3cc(-c4cnn(C)c4)c(O[C@H]4CCOC4)nn23)c(F)c(C(F)F)c1	0.8 µM	0.619 µM	–	0.443 µM	–	–

Continued, in another order:

IC50 [1]	IC50 [2]	IC50 (Cytochrome P450 3A4)	IC50 [3]	Papp at 2 h, 50 µM [4]	SMILES	other results
0.37 µM	0.284 µM	> 5 µM	7.3 µM	–	CNC(=O)c1cncc(-c2cnc3cc(-c4cnn(C)c4)c(OC4CCOC4)nn23)c1 (configuration not stated)	inhibition at 5 µM (CYP3A4): 0%
–	–	> 5 µM	–	0.2 ×10⁻⁶ cm/s	CNC(=O)c1cncc(-c2cnn3cc(-c4cnn(C)c4)c(OC4CCOC4)nc23)c1 (racemic)	inhibition at 5 µM (CYP3A4): 15%
–	–	> 25 µM	–	0.6 ×10⁻⁶ cm/s	CCNC(=O)c1cncc(-c2cnn3cc(-c4cnn(CC)c4)c(O[C@H]4CCOC4)nc23)c1	–
–	–	> 25 µM	–	2 ×10⁻⁶ cm/s	[2H]C([2H])([2H])NC(=O)c1cncc(-c2cnn3cc(-c4cnn(C(C)C)c4)c(O[C@H]4CCOC4)nc23)c1	QH [6]: 35%; AUC at 24 h [7]: 5.11 µM·h; IC50 [14]: 0.145 µM; Cmax [8]: 2.3 µM; Vd [9]: 1.6 L/kg; solubility [10]: 679 µg/mL (≈ 1510 µM); bioavailability [11]: 82%; half-life [12]: 1.7 h; solubility [13]: 18 µg/mL (≈ 40 µM)
–	–	9 µM	–	1.5 ×10⁻⁶ cm/s	CNC(=O)c1cncc(-c2cnn3cc(-c4cnn(C(C)C)c4)c(O[C@H]4CCOC4)nc23)c1	Activity (Mus musculus): Active; solubility [10]: > 400 µg/mL; solubility [13]: 17 µg/mL (≈ 38 µM)
